In the SangsterLogP compilation:

Structure (SMILES)	logP
CCC(CC)C(=O)Nc1cc(C)ccc1S(N)(=O)=O	2.13
CCC(CC)C(=O)NS(=O)(=O)c1ccc(C)cc1[N+](=O)[O-]	2.67
COc1ccc(S(N)(=O)=O)c(NC(=O)C(C)C)c1	1.37
Cc1ccc(S(N)(=O)=O)c(NC(=O)C(C)C)c1	1.45
CC(C)C(=O)NS(=O)(=O)c1ccccc1[N+](=O)[O-]	1.72
CC(C)C(=O)Nc1ccccc1S(N)(=O)=O	0.97
CCC(CC)C(=O)NS(=O)(=O)c1ccccc1[N+](=O)[O-]	2.17
CCC(CC)C(=O)Nc1cc(Cl)ccc1S(N)(=O)=O	2.55
CCC(CC)C(=O)NS(=O)(=O)c1ccc(OC)cc1N	2.03
CCC(CC)C(=O)Nc1ccccc1S(N)(=O)=O	1.62
CCC(CC)C(=O)NS(=O)(=O)c1cc([N+](=O)[O-])cc(C(F)(F)F)c1	3.57
CCC(CC)C(=O)Nc1cc(OC)ccc1S(N)(=O)=O	2.01
CC(C)C(=O)Nc1cc(Cl)ccc1S(N)(=O)=O	1.87
CCC(CC)C(=O)NS(=O)(=O)c1ccccc1N	1.64

Now from value to molecule:

logP	Structure (SMILES)
3.1	CC(C)C(=O)NS(=O)(=O)c1cc([N+](=O)[O-])cc(C(F)(F)F)c1
2.53	CCC(CC)C(=O)NS(=O)(=O)c1ccc(Cl)cc1N
2.17	Cc1ccc(S(=O)(=O)NC(=O)C(C)C)c([N+](=O)[O-])c1
1.65	Cc1ccc(S(=O)(=O)NC(=O)C(C)C)c(N)c1
3.06	CCC(CC)C(=O)Nc1cc(C(F)(F)F)ccc1S(N)(=O)=O
2.18	CCC(CC)C(=O)NS(=O)(=O)c1ccc(C)cc1N
2.56	CC(C)C(=O)NS(=O)(=O)c1ccc(C(F)(F)F)cc1N
2.45	CC(C)C(=O)Nc1ccc(C(F)(F)F)cc1S(N)(=O)=O
1.17	CC(C)C(=O)NS(=O)(=O)c1ccccc1N
1.58	COc1ccc(S(=O)(=O)NC(=O)C(C)C)c(N)c1
